From patent US8242123B2, “Insecticidal methods using 4-amino-5-chloro-thieno[2,3-d]-pyrimidine compounds” (Merial Limited, priority 2006, dated 2012)

Legend:
Assay type in all cases: in vivo
[1] = test system: Cotton Aphid (aphis gossypii), Mixed Life Stages; assay: Cotton aphid, mixed life stages, infested cotyledon dip test; conditions: 300 ppm; comparative test
Experimental: (§1) In the following tests, if not precised otherwise, the formulated solutions of some of the compound examples were diluted to an active ingredient concentration of 300 ppm, and the diluted solutions were applied in the below mentioned tests.
The active compounds were formulated in 50:50 acteone/water and 100 ppm Kinetic™ surfactant
Cotton plants at the cotyledon stage were infested prior to treatment by placing a heavily infested leaf from the main aphid colony on top of each cotyledon. The aphids were allowed to transfer overnight and the host leaf was removed. The infested cotyledons were then dipped and agitated in the test solution for 3 seconds and allowed to dry in a fume hood. Test plants were maintained under fluorescent lighting in a 24-hr photoperiod at 25° C. and 20-40% relative humidity. Aphid mortality on the treated plants, relative to mortality on untreated check plants, was determined after 5 days.
(§2) The biological activity in tables B.1 and B.2 was evaluated on scale range from 0% as showing no biological activity to 100% as having total control. The comparative biological tests were conducted as described above.

[2] = test system: Green Peach Aphid (Myzus persicae), Mixed Life Stages; assay: Green peach aphid, mixed life stages, bell pepper leaf dip test; conditions: 300 ppm; comparative test
Experimental: as §1
Bell pepper plants at the first true-leaf stage were infested prior to treatment by placing heavily infested leaves from the main aphid colony on top of the treatment plants. The aphids were allowed to transfer overnight to accomplish an infestation of 30-40 aphids per plant and the host leaves were removed. The infested leaves of the test plants were then dipped and agitated in the test solution for 3 seconds and allowed to dry in a fume hood. Test plants were maintained under fluorescent lighting in a 24-hr photoperiod at 25° C. and 20-40% relative humidity. Aphid mortality on the treated plants, relative to mortality on untreated check plants, was determined after 5 days.
as §2

[3] = test system: Rice Plant Hopper (Nilaparvata lugens); assay: Rice plant hopper, sprayed rice seedlings; conditions: for biological activity (0% no activity to 100% total control), Nilaparvata lugens: 300 ppm, comparative test; for mortality at 100 ppm: Nilaparvata lugens, after 72 hours, rice seedlings sprayed, 10 adults
Experimental: as §1
(§3) Rice seedlings were cleaned and washed 24 hours before spraying. The active compounds were formulated in 50:50 acetone:water and 0.1% vol/vol surfactant (EL 620) was added. Potted rice seedlings were sprayed with 5 ml test solution, air dried, placed in cages and inoculated with 10 adults. Treated rice plants were kept at 28-29° C. and relative humidity of 50-60%. Percent mortality was recorded after 72 hours.
as §2

[4] = test system: Silverleaf Whitefly (Bemisia argentifolii); assay: Silverleaf whitefly, cotton cotyledon dip test; conditions: for biological activity (0% no activity to 100% total control), Bemesia argentifolia: 300 ppm, comparative test; for mortality at 100 ppm: Bemisia argentifolii, 72 h, 3 days after treatment, adults on cotton cotyledons, read-out: mortality compared to untreated controls (silverleaf whitefly)
Experimental: as §1
(§4) The active compounds were formulated in 50:50 acetone:water and 100 ppm Kinetic™ surfactant.
Selected cotton plants were grown to the cotyledon state (one plant per pot). The cotyledons were dipped into the test solution to provide complete coverage of the foliage and placed in a well-vented area to dry. Each pot with treated seedling was placed in a plastic cup and 10 to 12 whitefly adults (approximately 3-5 day old) were introduced. The insects were colleted using an aspirator and an 0.6 cm, non-toxic TygonO tubing (R-3603) connected to a barrier pipette tip. The tip, containing the collected insects, was then gently inserted into the soil containing the treated plant, allowing insects to crawl out of the tip to reach the foliage for feeding. The cups were covered with a reusable screened lid (150 micron mesh polyester screen PeCap from Tetko Inc). Test plants were maintained in the holding room at about 25° C. and 20-40% relative humidity for 3 days avoiding direct exposure to the fluorescent light (24 hour photoperiod) to prevent trapping of heat inside the cup. Mortality was assessed 3 days after treatment of the plants.
as §2

[5] = test system: Southern Armyworm (spodoptera eridania), 2nd-3rd Instar Larvae; assay: Southern armyworm, lima bean foliage dip test; conditions: for biological activity (0% no activity to 100% total control), Spodoptera eridania: 300 ppm, comparative test
Experimental: as §1
The active compounds were formulated as a 10.000 ppm solution in a mixture of 35% acetone and water, which was diluted with water, if needed.
Sieva lima bean foliage, expanded to the first true leaves, were dipped and agitated in the test solution for 3 seconds and then allowed to dry in a fume hood. The treated plant was then placed in 25-cm plastic perforated zip enclosure bags, ten 2nd-instar larvae were added, and the bags sealed. After 4 days, observations were made of mortality, plant feeding, and of any interference with larval growth.
as §2

[6] = test system: Colorado Potato Beetle (Leptinotarsa decemlineata); assay: Colorado potato beetle, potato leaf dip test; conditions: foliar, 120 h, 5 days after treatment, larvae on dipped potato leaves, read-out: mortality compared to untreated controls (Colorado potato beetle)
Experimental: as §1
Potato plants were utilized for bioassays. Excised plant leaves were dipped into 1:1 acetone/water dilutions of the active compounds. After the leaves had dried, they were individually placed onto water-moistened filter paper on the bottoms of Petri dishes.
Each dish was infested with 5-7 larvae and covered with a lid. Each treatment dilution was replicated 4 times. Test dishes were held at approximately 27° C. and 60% humidity. Numbers of live and morbid larvae were assessed in each dish at 5 days after treatment application, and mortality percentage was calculated.

[7] = test system: Rice Green Leafhopper (Nephotettix virescens); assay: Rice green leafhopper, sprayed rice seedlings; conditions: after 72 hours, 10 adults
Experimental: as §1
as §3, with “acetone:water,” for “acetone:water”

[8] = test system: Cowpea Aphid (aphis craccivora); assay: Cowpea aphid, sprayed potted cowpea plants; conditions: population reduction recorded after 24, 72 and 120 hours
Experimental: as §1
The active compounds were formulated in 50:50 acetone:water. Potted cowpea plants colonized with 100-150 aphids of various stages were sprayed after the pest population has been recorded. Population reduction was recorded after 24, 72, and 120 hours.

Bean Aphid (aphis fabae) = assay: Bean aphid, nasturtium plant dip test; conditions: 72 h, after 3 days, nasturtium plants dipped
Experimental: as §1, §4
Nasturtium plants grown in Metro mix in the 1st leaf-pair stage (variety ‘Mixed Jewle’) were infested with approximately 2-30 laboratory-reared aphids by placing infested cut plants on top of the test plants. The cut plants were removed after 24 hr. Each plant was dipped into the test solution to provide complete coverage of the foliage, stem, protruding seed surface and surrounding cube surface and allowed to dry in the fume hood. The treated plants were kept at about 25° C. with continuous fluorescent light. Aphid mortality was determined after 3 days.

C[C@H](Nc1ncnc2scc(Cl)c12)c1ccccc1 [reference compound]
biological activity (0% no activity to 100% total control), Aphis gossypii [1]: 100%
biological activity (0% no activity to 100% total control), Myzus persicae [2]: 100%
biological activity (0% no activity to 100% total control), Nilaparvata lugens [3]: 0%
biological activity (0% no activity to 100% total control), Bemesia argentifolia [4]: 0%

CC(C)(C)[C@H]1CC[C@@H](Nc2ncnc3scc(Cl)c23)CC1 [drawing 15]
biological activity (0% no activity to 100% total control), Aphis gossypii [1]: 100%
biological activity (0% no activity to 100% total control), Myzus persicae [2]: 100%
biological activity (0% no activity to 100% total control), Nilaparvata lugens [3]: 100%
biological activity (0% no activity to 100% total control), Spodoptera eridania [5]: 100%
biological activity (0% no activity to 100% total control), Bemesia argentifolia [4]: 100%

FC(F)(F)Oc1ccc(CCNc2ncnc3scc(Cl)c23)cc1 [Compound 5, (5-Chloro-thieno[2,3-d]pyrimidin-4-yl)-[2-(4-trifluoromethoxy-phenyl)-ethyl]-amine]
mortality at 100 ppm [3]: ≥ 90%
mortality at 100 ppm ([5]; Spodoptera eridania, foliar, 96 h, 100 ppm, after 4 days, lima bean foliage dipped, read-out: mortality in comparison with untreated controls (southern armyworm)): ≥ 60%
mortality at 100 ppm [4]: ≥ 90%
mortality at 100 ppm [6]: ≥ 90%
mortality at 100 ppm [7]: ≥ 60%
mortality at 100 ppm [8]: ≥ 75%

CC(C)(C)[C@H]1CC[C@@H](Nc2ncnc3scc(Cl)c23)CC1 [Compound 6, cis-(4-tert-Butyl-cyclohexyl)-(5-chloro-thieno[2,3-d]pyrimidin-4-yl)-amine]
mortality at 100 ppm [3]: ≥ 90%
mortality at 100 ppm [4]: ≥ 90%
mortality at 100 ppm [6]: ≥ 90%
mortality at 100 ppm [7]: ≥ 60%
mortality at 100 ppm (Bean Aphid (aphis fabae)): ≥ 60%
mortality at 100 ppm [8]: ≥ 75%

[H][C@H]1CC[C@H](Nc2ncnc3scc(Cl)c23)CC1 [reference compound]
biological activity (0% no activity to 100% total control), Aphis gossypii [1]: 75%
biological activity (0% no activity to 100% total control), Myzus persicae [2]: 50%
biological activity (0% no activity to 100% total control), Nilaparvata lugens [3]: 0%
biological activity (0% no activity to 100% total control), Spodoptera eridania [5]: 0%
biological activity (0% no activity to 100% total control), Bemesia argentifolia [4]: 0%

CC(Nc1ncnc2scc(Cl)c12)c1ccc(OC(F)(F)F)cc1 (centres unmarked) [Compound 2, (5-Chloro-thieno[2,3-d]pyrimidin-4-yl)-[1-(4-trifluoromethoxy-phenyl)-ethyl]-amine]
mortality at 100 ppm [3]: ≥ 90%
mortality at 100 ppm [4]: ≥ 90%
mortality at 100 ppm [6]: ≥ 90%
mortality at 100 ppm [7]: ≥ 60%
mortality at 100 ppm (Bean Aphid (aphis fabae)): ≥ 60%
mortality at 100 ppm [8]: ≥ 75%
